Measurements reported in paper PMC6273978, “Synthesis and Pharmacological Evaluation of Novel Pleuromutilin Derivatives with Substituted Benzimidazole Moieties” (Molecules, 2016).
Values after ≈ are worked out from the molar mass of the structure shown.

Key:
CYP2D6 = target: T1, CYP2D6 (Homo sapiens, UniProt P10635); assay: Cytochrome P450 inhibition cocktail assay, human liver microsomes; type: in vitro ADME; details: probe dextromethorphan, metabolite dextrophan
T1 construct: Twenty microliters of human liver microsomes (final concentration of 0.3 mg/mL); from tissue; host or cells: human liver microsomes
Experimental: (§1) The cytochrome P450 (CYP) proteins form a large family of heme proteins that catalyze many reactions involved xenobiotic metabolism and biosynthesis of cholesterol, steroids, and other lipid components. Some chemicals could affect the disposition of conventional pharmaceuticals through the inhibition of CYP450 enzymes. […] The selective probe substrate concentrations were prepared near to its respective Km value, and the compound 3 concentration range is from […].
(§2) Compound 3 was screened for its ability to inhibit cytochrome P450 using a cocktail assay described previously. Briefly, 50 μL of compound 3 was added to 96-well plates, with final concentrations of 0.05, 0.1, 0.5, 1, 10, 50, and 100 μM, respectively. Twenty microliters of human liver microsomes (final concentration of 0.3 mg/mL) and 20 μL of probe substrates (Table 3) in 0.1 M Tris were added. After preincubation at 37 °C for 10 min, 10 μL of NADPH was added (final concentration of 1 mM), and the reaction started to incubate at the same temperature for 15 min. The reactions were then quenched by the addition of 100 μL of acetonitrile with a mixture of propranolol and nadolol (50 nM) used as an internal standard. After reactions were finished, the plates were centrifuged and the supernatants were analyzed for the five metabolites (Table 3) by LC/MS/MS.

CYP3A4 = target: T2, CYP3A4 (Homo sapiens, UniProt P08684); assay: as above; type: in vitro ADME; details: probe midazolam, metabolite 1-OH-midazolam
T2 construct: Twenty microliters of human liver microsomes (final concentration of 0.3 mg/mL); from tissue; host or cells: human liver microsomes
Experimental: as §1, §2

MRSA [1] = assay: Oxford cup assay, zone of inhibition; type: cell-based; details: Staphylococcus aureus
Experimental: (§3) The Oxford cup assays were carried out to evaluate the antibacterial activities against the above-mentioned six bacterial strains. The zones of inhibition for two concentrations (320 and 160 μg/mL) of the synthetic compounds and tiamulin fumarate were measured. The results of Oxford cup assay correspond with that obtained by agar dilution method (MICs) as a whole.
(§4) The procedure for Oxford cup assays was the same as that previously reported. Briefly, inoculums were prepared in 0.9% saline using McFarland standard and spread uniformly on nutrient agar plates. The 320 and 160 µg/mL of all the tested compounds were added individually into the Oxford cups that were placed at equal distances above the agar surfaces. The zone of inhibition for each concentration was measured after a 24–36 h incubation at 37 °C. The same procedure was repeated in triplicate.

S. aureus [2] = assay: Oxford cup assay, zone of inhibition; type: cell-based; details: Staphylococcus aureus
Experimental: as §3, §4

S. warneri = assay: Oxford cup assay, zone of inhibition; type: cell-based; details: Staphylococcus warneri
Experimental: as §3, §4

E. coli = assay: Oxford cup assay, zone of inhibition; type: cell-based; details: Escherichia coli
Experimental: as §3, §4

S. haemolyticus = assay: Oxford cup assay, zone of inhibition; type: cell-based; details: Staphylococcus haemolyticus
Experimental: as §3, §4

MRSA [3] = assay: Inhibition of short-term bacterial growth (absorbance at 450 nm); type: cell-based; details: Staphylococcus aureus, 3.5 h incubation, Mueller-Hinton broth
Experimental: (§5) Compound 3, being the best antibacterial derivative, was chosen for further evaluation on its antibacterial effect to inhibit short-term S. aureus and MRSA growth (Figure 2). This includes the GI50 of tiamulin fumarate for S. aureus and MRSA.
(§6) The inhibition activities of test compounds were evaluated by measuring the absorbance of the bacterial suspension. In brief, inoculums were prepared from blood slants and adjusted to approximately 10^6 CFU/mL in Muellere-Hinton broth. The 0.0625, 0.125, 0.25, 0.5, 1, and 2 µM of tested compounds were prepared and added to the prepared inoculums. A sample of inoculum with no compound was used as control. The absorbance of bacterial suspension at 450 nm was measured using an UV spectrophotometer after 3.5 h of incubation, and the inhibition was calculated as 1 − (A^P/A^0), where A^p and A^0 are the absorbance of bacterial suspension in the presence and absence of compounds, respectively. The same procedure was independently repeated in triplicate.

S. aureus [4] = assay: as above; type: cell-based; details: Staphylococcus aureus, 3.5 h, read-out: GI50 S. aureus growth
Experimental: as §5, §6

[5] = test system: Escherichia coli (E. coli); assay: MIC testing, agar dilution method; type: cell-based; details: 36.5 °C, 24–48 h
Source text: (§7) The synthesized pleuromutilin derivatives 3 and 4a–l, with tiamulin fumarate used a as reference drug, were screened for their in vitro antibacterial activity against Escherichia coli (E. coli), Staphylococcus aureus (S. aureus), Methicillin-resistant Staphylococcus aureus (MRSA), Staphylococcus vitulinus (S. vitulinus), Staphylococcus warneri (S. warneri), and Staphylococcus haemolyticus (S. haemolyticus). The antibacterial activities are reported in Table 1 as the minimum inhibitory concentration (MIC) using the agar dilution method. The MICs of the 13 new pleuromutilin derivatives in vitro against E. coli ranged from 10 to 80 μg/mL; against S. aureus, MRSA, S. vitulinus, S. warneri, and S. haemolyticus ranged from 0.156 to 40 μg/mL, respectively.
(§8) The MIC for the synthesized compounds (3 and 4a–l) and tiamulin fumarate used as a reference drug were determined using the agar dilution method according to the National Committee for Clinical Laboratory Standards (NCCLS). Tested compounds were dissolved in 25%–40% DMSO to a solution with a concentration of 1280 µg/mL, whereas tiamulin fumarate was directly dissolved in 10 mL of distilled water at the same concentration as the tested compounds. All the solutions were then diluted twofold with sterile water to provide 11 dilutions (final concentration is 0.625 µg/mL). A 2 mL volume of the 2-fold serial dilution of each test compound/drug was incorporated into 18 mL of hot Muellere-Hinton agar medium. Inoculums, including five Gram (+), S. aureus, MRSA, S. vitulinus, S. warneri, S. haemolyticus, and one Gram (−), E. coli were prepared from blood slants and adjusted to approximately 10^5–10^6 CFU/mL with sterile saline (0.90% NaCl). A 10 µL amount of bacterial suspension was spotted onto Muellere-Hinton agar plates containing serial dilutions of the compounds/drug. The plates were incubated at 36.5 °C for 24–48 h. The same procedure was repeated in triplicate.

[6] = test system: Staphylococcus aureus (S. aureus); assay: MIC testing, agar dilution method; type: cell-based; details: 36.5 °C, 24–48 h
Source text: as §7, §8

[7] = test system: Staphylococcus warneri (S. warneri); assay: MIC testing, agar dilution method; type: cell-based; details: 36.5 °C, 24–48 h
Source text: as §7, §8

[8] = test system: Staphylococcus vitulinus (S. vitulinus); assay: MIC testing, agar dilution method; type: cell-based; details: Mammaliicoccus vitulinus, 36.5 °C, 24–48 h
Source text: as §7, §8

[9] = test system: Methicillin-resistant Staphylococcus aureus (MRSA); assay: MIC testing, agar dilution method; type: cell-based; details: 36.5 °C, 24–48 h
Source text: as §7, §8

[10] = test system: Staphylococcus haemolyticus (S. haemolyticus); assay: MIC testing, agar dilution method; type: cell-based; details: 36.5 °C, 24–48 h
Source text: as §7, §8

T1 sequence (P10635 whole entry): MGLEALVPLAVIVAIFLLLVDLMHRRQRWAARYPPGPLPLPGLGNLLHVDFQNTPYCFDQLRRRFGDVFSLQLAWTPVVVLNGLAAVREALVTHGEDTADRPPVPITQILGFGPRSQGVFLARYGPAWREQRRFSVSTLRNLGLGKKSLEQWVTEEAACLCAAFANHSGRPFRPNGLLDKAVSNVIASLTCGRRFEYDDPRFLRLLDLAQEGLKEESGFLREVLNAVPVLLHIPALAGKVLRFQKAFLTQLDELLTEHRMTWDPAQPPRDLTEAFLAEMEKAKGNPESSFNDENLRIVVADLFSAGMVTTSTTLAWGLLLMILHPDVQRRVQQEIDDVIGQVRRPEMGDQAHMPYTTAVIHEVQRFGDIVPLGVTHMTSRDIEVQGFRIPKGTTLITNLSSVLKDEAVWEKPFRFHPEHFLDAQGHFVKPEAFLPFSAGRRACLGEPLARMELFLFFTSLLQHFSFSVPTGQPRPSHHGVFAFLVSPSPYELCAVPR
T2 sequence (P08684 whole entry): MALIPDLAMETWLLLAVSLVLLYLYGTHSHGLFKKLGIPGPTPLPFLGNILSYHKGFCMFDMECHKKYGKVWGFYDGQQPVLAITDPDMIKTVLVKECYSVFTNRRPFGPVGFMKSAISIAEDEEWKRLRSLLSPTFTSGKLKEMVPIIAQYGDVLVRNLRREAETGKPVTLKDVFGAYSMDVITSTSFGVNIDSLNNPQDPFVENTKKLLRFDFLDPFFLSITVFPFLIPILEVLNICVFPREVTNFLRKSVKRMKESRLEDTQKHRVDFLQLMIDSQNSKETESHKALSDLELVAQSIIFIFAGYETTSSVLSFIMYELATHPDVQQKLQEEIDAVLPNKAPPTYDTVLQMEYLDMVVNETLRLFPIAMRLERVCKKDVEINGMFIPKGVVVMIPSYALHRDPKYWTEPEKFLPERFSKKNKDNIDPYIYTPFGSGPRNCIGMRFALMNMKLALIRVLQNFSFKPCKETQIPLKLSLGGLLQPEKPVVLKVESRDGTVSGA

## C=C[C@]1(C)C[C@@H](OC(=O)CSc2nc3ccc(N)cc3[nH]2)[C@]2(C)[C@H](C)CC[C@]3(CCC(=O)[C@H]32)[C@@H](C)[C@@H]1O [Compound 3, 14-O-((5-Amino-benzimidazole-2-yl)thioacetyl) Mutilin]
CYP2D6
  IC50: > 100000 nM
CYP3A4
  IC50: 1690 nM
MRSA [1]; 160 µg/mL
  zone of inhibition at 160 µg/mL: 25.4 mm
MRSA [1]; 320 µg/mL
  zone of inhibition at 320 µg/mL: 30.6 mm
S. aureus [2]; 160 µg/mL
  zone of inhibition at 160 µg/mL: 27.3 mm
S. aureus [2]; 320 µg/mL
  zone of inhibition at 320 µg/mL: 29.6 mm
S. warneri; 160 µg/mL
  zone of inhibition at 160 µg/mL: 28 mm
S. warneri; 320 µg/mL
  zone of inhibition at 320 µg/mL: 32.3 mm
E. coli; 160 µg/mL
  zone of inhibition at 160 µg/mL: 21.4 mm
E. coli; 320 µg/mL
  zone of inhibition at 320 µg/mL: 25.5 mm
S. haemolyticus; 160 µg/mL
  zone of inhibition at 160 µg/mL: 30.3 mm
S. haemolyticus; 320 µg/mL
  zone of inhibition at 320 µg/mL: 33 mm
MRSA [3]
  GI50: 175 nM
S. aureus [4]
  GI50: 98.7 nM
[5]
  MIC: 10 µg/mL (≈ 19 µM)
[6]
  MIC: 0.156 µg/mL (≈ 0.297 µM)
[7]
  MIC: 0.156 µg/mL (≈ 0.297 µM)
[8]
  MIC: 0.156 µg/mL (≈ 0.297 µM)
[9]
  MIC: 0.156 µg/mL (≈ 0.297 µM)
[10]
  MIC: 0.156 µg/mL (≈ 0.297 µM)
